Consider five compounds from PMC10380868, “Trapa bispinosa Roxb. Pericarp Extract Exerts 5α-Reductase Inhibitory Activity in Castrated Benign Prostatic Hyperplasia Model Mice” (International Journal of Molecular Sciences, 2023).

For one assay, the system named is 5αR. The following applies: cited from earlier work.
In the next assay the test system is castrated BPH model mice. Nature of the assay: Castrated benign prostatic hyperplasia (BPH) mouse model. It is filed as in vivo. Conditions: for testosterone-induced increase in seminal gland weight / testosterone-induced increase in ventral prostate size, length and width: 0.08% Fin, 1% TBE or 2% EA in drinking water, testosterone i.p. daily.
The next assay concerns the target T1, 5α-reductase (5αR) (Rattus norvegicus, UniProt P24008).
T1 sequence (P24008 1-259): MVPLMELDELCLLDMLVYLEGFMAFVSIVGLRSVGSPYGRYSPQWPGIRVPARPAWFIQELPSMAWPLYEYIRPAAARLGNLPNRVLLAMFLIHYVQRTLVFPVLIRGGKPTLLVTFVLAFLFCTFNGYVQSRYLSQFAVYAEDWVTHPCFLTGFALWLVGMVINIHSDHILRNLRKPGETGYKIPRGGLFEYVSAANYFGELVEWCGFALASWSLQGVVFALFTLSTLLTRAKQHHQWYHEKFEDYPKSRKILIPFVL
Nature of the assay: 5αR activity assay (S9 rat liver homogenate, residual testosterone by HPLC). It is filed as biochemical. Conditions: cell-free system.

[1] abbreviates: qPCR, prostate and seminal glands.

“1,2,3,6- or 1,2,4,6-tetra-O-galloyl-D-glucose [TGG]”: the “inhibition of 5αR” value in the assay on 5αR is on record as “inhibit 5αR”.
Regarding `O=c1oc2c(O)c(O)cc3c(=O)oc4c(O)c(O)cc1c4c23` [EA, ellagic acid], in the assay with castrated BPH model mice, the “testosterone-induced increase in seminal gland weight” value is “negligible effects”; the “testosterone-induced increase in ventral prostate size, length and width” value is on record as “negligible effects”. Moreover, the “inhibition of 5αR activity” value at 5α-reductase (5αR) is listed as “weakly inhibited”.
As to `CC(C)(C)NC(=O)[C@H]1CC[C@H]2[C@@H]3CC[C@H]4NC(=O)C=C[C@]4(C)[C@H]3CC[C@]12C` [Fin, finasteride], in the assay with castrated BPH model mice, the “testosterone-induced increase in seminal gland weight” value is reported as “tended to inhibit”; the “testosterone-induced increase in ventral prostate size, length and width” value is given as “tended to inhibit”. The “canalization and lumen formation in prostate gland” value with castrated BPH model mice (Masson's trichrome histology, 0.08% Fin or 1% TBE) is reported as “suppressed”. The “prostate basal cell proliferation, BrdU+ cells” value in the assay with castrated BPH model mice (immunohistochemistry, 0.08% Fin or 1% TBE) is “inhibited cell proliferation”. In the assay on castrated BPH model mice (setting [1]), the “PSA (Klkb1) expression” value is listed as “suppressed” and the “TMPRSS2 expression” value was “suppressed”.
With `O=C(O)c1cc(O)c(O)c(O)c1` [GA, gallic acid], the “5αR inhibitory effects” value in the assay with 5αR is listed as “does not exert 5αR inhibitory effects”.
For `O=C(O[C@@H]1O[C@@H]2COC(=O)c3cc(O)c(O)c(O)c3-c3c(cc(O)c(O)c3O)C(=O)O[C@H]2[C@H](OC(=O)c2cc(O)c(O)c(O)c2)[C@H]1OC(=O)c1cc(O)c(O)c(O)c1)c1cc(O)c(O)c(O)c1` [eugeniin], the “inhibition of 5αR” value in the assay with 5αR was “inhibit 5αR”.
